Results reported in BindingDB's records for doi:10.7270/Q29Z939R (The Scripps Research Institute Molecular Screening Center, 2009).

Molecular target: T1, Core protein (Hepacivirus C, UniProt Q2Q167)
T1 sequence (Q2Q167 whole entry): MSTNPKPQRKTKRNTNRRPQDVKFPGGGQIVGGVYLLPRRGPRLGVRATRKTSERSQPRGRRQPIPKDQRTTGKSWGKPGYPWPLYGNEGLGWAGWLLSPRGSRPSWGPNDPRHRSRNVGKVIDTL
Test: disruption of hepatitis C core self-association – biochemical, TR-FRET, dose response (AID 2159)

SMILES	IC50 [µM]
CCOC1=CC(=Cc2c(-c3ccccc3)[nH]n(-c3nc(-c4ccc(Br)cc4)cs3)c2=O)C=CC1=O	> 49.8
Cc1sccc1C1C(C#N)C(=N)SC(=N)C1C#N (configuration not stated) [2,6-diamino-4-(2-methyl-3-thiophenyl)-4H-thiopyran-3,5-dicarbonitrile]	> 49.8
Cc1cc(C)n2c(SCC(=O)C(C#N)c3nc4ccccc4[nH]3)nnc2n1 (configuration not stated) [2-(1,3-dihydrobenzimidazol-2-ylidene)-4-[(5,7-dimethyl-[1,2,4]triazolo[4,3-a]pyrimidin-3-yl)sulfanyl]-3-oxidanylidene-butanenitrile]	> 49.8
O=C1Nc2ccc([N+](=O)[O-])cc2/C1=N/NC(=O)c1cc(-c2ccccc2Cl)nc2ccccc12 [2-(2-chlorophenyl)-N'-(2-keto-5-nitro-indol-3-yl)cinchoninohydrazide]	> 49.8
O=[N+]([O-])c1cc([CH+][N-]n2c(O)csc2=S)ccc1Cl [3-[(4-chloranyl-3-nitro-phenyl)methylideneamino]-2-sulfanylidene-1,3-thiazolidin-4-one]	> 49.8
Cc1cccc2c1NC(=O)C2=NNc1ccc(S(=O)(=O)Nc2ccc(Cl)cc2)cc1[N+](=O)[O-] [MLS000393762]	> 49.8
COc1cccc(CN=Nc2ncnc3c2[nH]c2ccc(C)cc23)c1OC [SMR000439805]	> 49.8
